Measurements reported in patent US20220242846A1, “ISOINDOLINONE COMPOUNDS” (Monte Rosa Therapeutics AG, priority 2019, published 2022).
Like-named read-outs stand apart in the source and are kept apart here.

Key:
[1] = target: T1, Full length wild-type cereblon CRBN (Homo sapiens, UniProt Q96SW2); assay: Fluorescence polarization (FP) assay indicating cereblon binding; details: CRBN 80.0 nM, fluorescent probe 5 nM, FP measured after 12 hours; read-out: rFP IC50
T1 construct: Full length wild-type cereblon CRBN (80.0 nM, 10 μL) was incubated in assay buffer
Excerpt: Protocol for Fluorescent Polarization Assay
Compound activity was monitored in a fluorescence polarization (FP) homogeneous assay using 1-[5-({2-[2-(2-{[2-(2,6-dioxopiperidin-3-yl)-1,3-dioxo-2,3-dihydro-1H-isoindol-4-yl]oxy}acetamido)ethoxy]ethyl}carbamoyl)pentyl]-3,3-dimethyl-2-[(1E,3E)-5-[(2E)-1,3,3-trimethyl-5-sulfo-2,3-dihydro-1H-indol-2-ylidene]penta-1,3-dien-1-yl]-3H-indol-1-ium-5-sulfonate as a fluorescent probe. Unless otherwise stated, all reagents were purchased from Sigma Aldrich. Enzymatic reactions were conducted in Perkin-Elmer Black 384 well ProxiPlate Plus (catalogue no. 6008269) in 10 μL total volume. Full length wild-type cereblon CRBN (80.0 nM, 10 μL) was incubated in assay buffer containing 20 mM HEPES (pH 8.0), […], 0.5 mM TCEP and 0.05% Tween 20 in the presence or absence of compound (300 nL). Inhibitors were stored as 10 mM DMSO stocks in an inert environment (low humidity, dark, low oxygen, room temperature) using the Storage Pod System. Compounds and DMSO were dispensed using the Echo E5XX (Labcyte Inc. USA) to give concentrations from 300 to 0.937 or 3000 to 9.3 nM in a 12 data point curve. […] Following incubation at room temperature for […], the assay was initiated by dispensing the probe to a final concentration of 5 nM (2.5 nL of a 20 μM stock) using the Echo E5XX. FP was measured after a period of 12 hours using a Pherastar plate reader (BMG Labtech, Germany) exciting at 590 nm and measuring the amount of parallel and perpendicular light at 675 nm. The FP signal was subsequently normalized to the no-compound control (i.e., DMSO). Analysis and IC50 values were derived using Dotmatics (Dotmatics UK) software.

[2] = tested on: Human mammary epithelial cells (HMEC) engineered to express c-myc tagged with EGFP; assay: 3D spheroid assay, myc-HMEC (CellTiterGlo3D viability); assay type: cell-based
Procedure: (§1) 3D Spheroid Experiments—HMEC
(§2) Human mammary epithelial cells (HMEC) were engineered to express either c-myc tagged with EGFP or EGFP alone (non myc) (analogous but distinct from Kessler J D et al, Science. 2012 Jan. 20; 335(6066):348-53. doi: 10.1126/science.1212728; Hsu T Y et al, Nature. 2015 Sep. 17; 525(7569):384-8. doi: 10.1038/nature14985). The engineered cells were seeded at 1000 (myc) or 4000 (non myc) cells/well in a 384 ultra-low attachment plate in a total volume of 40 µL, HMEC cell culture media (DMEM/F12+10% HI-FBS+15 mM HEPES+0.5 ug/ml Hydrocortisone+10 ug/ml Insulin+20 ng/ml EGF). Plates were spun at 1200 rpm for 5 minutes at room temperature to ensure that cells have gathered in the middle of the well and incubated at 37° C. for 48 hrs before firing with compounds. On Day 2 (48 h post seeding) cells were imaged (brightfield and EGFP fluorescence) using the Celigo imaging cytometer prior to firing compounds. For primary screens, compounds were added at three concentrations (1.25, 10 and 30 uM) in a volume of 120 nL using the ECHO acoustic dispenser and spun at 2000 rpm for 2 minutes at room temperature before incubating at 37° C. for 5 days. […] On Day 7, prior to measuring cell viability using CellTiterGlo3D, cells were imaged (brightfield and EGFP fluorescence) on the Celigo imaging cytometer. The CellTiterGlo3D reagent is added at 30uL/well and incubated at room temperature for 30mins After 30mins of incubation, luminescence readings were recorded using the Perkin Elmer EnVision reader.

[3] = tested on: Human mammary epithelial cells (HMEC) engineered to express EGFP alone (non myc); assay: 3D spheroid assay, non myc-HMEC (CellTiterGlo3D viability); assay type: cell-based; details: 120 h, 3D spheroids, 5 days with compound, read-out: Code: EC50 value in the non myc-HMEC assay
Procedure: as §1, §2

GSPT1 = GSPT1 (Homo sapiens, UniProt P15170+Q96SW2); assay: Immunofluorescence assay for GSPT1 degradation in CAL-51 cells; assay type: cell-based; parameters: CAL-51 cells were purchased from DSMZ (cat. Number ACC302); endogenous in cells; host or cells: CAL-51 (DSMZ ACC302); details: compound treatment 6 hours
Procedure: CAL-51 cells were purchased from DSMZ (cat. Number ACC302), sub-cultured in 90% Dulbecco's MEM (4.5 g/L glucose, Gibco 11965) +10% heat inactivated FBS (BioConcept, 2-01F136I) and incubated at 37° C., 5% CO2. For the assay, imaging microtiterplate Cell Carrier 96 Ultra (Perkin Elmer 6055302) were pre-coated with Fibronectin (Sigma F085, 300 at 0.2 μg/ml) in PBS (1000, Gibco 14190) for 45 min at room temperature, rinsed with PBS and CAL-51 cells (30K cells/well) were plated and let to adhere overnight. Cells were treated with compounds typically using a serial dilution ranging from 30 μM to 0.1 nM for 6 hours. Compounds were stored at 10 mM DMSO stocks. Vehicle (DMSO), positive (CC-885, 10 μM) and rescue controls (positive control plus 0.2 μM bortezomib) were also included at this stage. Cells were subsequently rinsed with PBS and fixed in 10% Formalin solution (50 μl, Sigma HT5011)) for 20 mins at room temperature. Following three consecutive PBS washes (100 μl), cells were permeabilized in 0.1% Triton X-100 in PBS (Sigma 93443, 50 μl) for 15 mins at room temperature. Following three further PBS washes, 50 μl blocking buffer (1% BSA, Sigma A4503, in PBS) was added for 45 min for signal-to-noise reduction. Primary antibody (human GSPT1, Sigma HPA052488) was diluted in blocking buffer (dil. 1/300, 35 μl/well) and incubated with the cells overnight at 4° C. After three PBS washes, Alexa-fluor 488 coupled secondary antibodies (Invitrogen, A32731, dil. 1/1000), Alexa-fluor 647-Phalloïdin (Invitrogen, A22287, dil. 1/200) and DAPI (Thermo, #62248, dil.1/1000) were diluted in blocking buffer and incubated with the samples for 2 hours at room temperature. After three final PBS washes, samples were conserved in 1000 PBS in the dark, until measurement. Image acquisition was performed on the Operetta High-Content Imager (Perkin-Elmer). Fluorescence intensity of Alexa-Fluor 488 (GSPT1), Alexa-Fluor 647 (Actin) and DAPI (Nucleus) were measured. For the determination of GSPT1 DC50 values, a custom algorithm implemented in the PerkinElmer image analysis software Harmony-Acapella® was developed. After user-defined setting of adjustment parameters, the analysis was run identically without human intervention for all image fields. DAPI staining of the nuclei was used to determine the location of cells using standard nuclei detection modules. Segmentation artifacts were removed by threshold-based filters for area, roundness and intensity. The outline of the cells was determined analogously from the sum of the normalized, smoothed DAPI and Actin channel, starting from each nucleus. The Alexa-Fluor 488 (GSPT1) signal intensity in each cell was finally measured, in order to obtain a Mean intensity per cell. GSPT1 degradation (DC50) was calculated after normalization to controls and data import in CDD vault Database, using non-linear regression. Activity for GSPT1 Degradation Table 3 assigns each compound a code indicating the ability for GSPT1 degradation: A, B or C. According to the code, A represents a DC50 value of ≤100 nM, B represents a DC50 value >100 nM and ≤300 nM and C represents a DC50 value of >300 nM.

[4] = Homo sapiens, HMEC, 120 h, 3D spheroids, 5 days with compound, read-out: Code: EC50 value in the myc-HMEC assay
[5] = read-out: Code: activity for GSPT1 degradation (DC50)
[6] = myc-HMEC 3D spheroids (compounds with code D and E), 5 days, read-out: EC50

T1 sequence (Q96SW2 whole entry): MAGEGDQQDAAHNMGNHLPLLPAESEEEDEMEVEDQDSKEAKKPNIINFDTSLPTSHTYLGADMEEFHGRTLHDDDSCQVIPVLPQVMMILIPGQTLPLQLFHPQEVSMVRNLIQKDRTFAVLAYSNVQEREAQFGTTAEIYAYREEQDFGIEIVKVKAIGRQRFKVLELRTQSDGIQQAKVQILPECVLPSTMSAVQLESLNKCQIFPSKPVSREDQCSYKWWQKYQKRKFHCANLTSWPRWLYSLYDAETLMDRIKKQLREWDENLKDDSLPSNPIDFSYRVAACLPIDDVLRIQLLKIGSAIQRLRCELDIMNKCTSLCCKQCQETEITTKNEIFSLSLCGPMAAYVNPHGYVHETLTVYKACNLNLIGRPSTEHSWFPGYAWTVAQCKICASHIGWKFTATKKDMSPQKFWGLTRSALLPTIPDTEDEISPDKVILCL
Chain of GSPT1 (P15170 whole entry): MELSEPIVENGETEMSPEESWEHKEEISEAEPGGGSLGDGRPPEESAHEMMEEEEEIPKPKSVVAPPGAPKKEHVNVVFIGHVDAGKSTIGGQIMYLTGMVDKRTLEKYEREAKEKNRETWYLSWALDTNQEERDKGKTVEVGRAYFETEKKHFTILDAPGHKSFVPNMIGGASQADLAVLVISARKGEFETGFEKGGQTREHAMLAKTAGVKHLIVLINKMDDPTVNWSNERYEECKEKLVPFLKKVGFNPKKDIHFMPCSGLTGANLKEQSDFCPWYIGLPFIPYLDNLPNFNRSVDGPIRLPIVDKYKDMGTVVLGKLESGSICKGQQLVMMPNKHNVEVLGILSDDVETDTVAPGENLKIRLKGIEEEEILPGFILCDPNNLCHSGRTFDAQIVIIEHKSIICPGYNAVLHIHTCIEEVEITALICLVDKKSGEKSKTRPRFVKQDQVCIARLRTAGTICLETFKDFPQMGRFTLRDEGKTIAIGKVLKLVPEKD
Chain of GSPT1 (Q96SW2 whole entry): as the sequence (Q96SW2 whole entry) above
Chain of GSPT1 (Q16531 2-1140 partner limits assumed): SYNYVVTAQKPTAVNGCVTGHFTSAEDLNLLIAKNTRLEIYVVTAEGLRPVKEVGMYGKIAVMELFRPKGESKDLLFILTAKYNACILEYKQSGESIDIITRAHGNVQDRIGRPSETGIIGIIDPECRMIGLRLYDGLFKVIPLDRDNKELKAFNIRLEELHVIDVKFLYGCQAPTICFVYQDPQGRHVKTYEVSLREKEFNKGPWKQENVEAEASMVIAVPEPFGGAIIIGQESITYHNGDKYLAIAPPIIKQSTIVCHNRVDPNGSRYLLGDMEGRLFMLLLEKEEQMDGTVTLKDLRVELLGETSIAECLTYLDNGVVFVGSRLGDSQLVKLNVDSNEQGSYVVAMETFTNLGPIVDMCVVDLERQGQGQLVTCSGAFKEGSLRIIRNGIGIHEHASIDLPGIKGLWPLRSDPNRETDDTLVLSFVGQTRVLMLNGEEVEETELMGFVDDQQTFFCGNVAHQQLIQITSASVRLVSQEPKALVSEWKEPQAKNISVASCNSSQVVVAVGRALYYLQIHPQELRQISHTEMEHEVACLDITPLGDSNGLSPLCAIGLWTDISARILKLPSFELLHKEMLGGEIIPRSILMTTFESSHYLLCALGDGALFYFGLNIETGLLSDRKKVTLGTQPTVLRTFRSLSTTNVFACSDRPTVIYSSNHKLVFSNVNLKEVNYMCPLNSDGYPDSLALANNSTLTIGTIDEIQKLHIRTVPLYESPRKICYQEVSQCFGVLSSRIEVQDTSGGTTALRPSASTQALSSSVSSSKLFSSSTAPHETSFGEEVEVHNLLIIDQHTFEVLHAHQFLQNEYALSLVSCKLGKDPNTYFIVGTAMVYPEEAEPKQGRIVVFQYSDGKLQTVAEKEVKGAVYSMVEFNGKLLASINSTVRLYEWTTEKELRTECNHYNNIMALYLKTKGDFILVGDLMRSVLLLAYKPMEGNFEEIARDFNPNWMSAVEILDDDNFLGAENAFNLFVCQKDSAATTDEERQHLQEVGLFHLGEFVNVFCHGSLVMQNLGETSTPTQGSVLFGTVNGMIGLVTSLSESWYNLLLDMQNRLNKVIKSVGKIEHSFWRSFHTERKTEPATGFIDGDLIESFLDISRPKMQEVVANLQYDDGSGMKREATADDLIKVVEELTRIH

IC50 [1] [nM]	DC50 (GSPT1; [5]) [nM]	DC50 (GSPT1; GSPT1 degradation, read-out: DC50) [nM]	Compound	EC50 [2, 4] [nM]	EC50 [3] [nM]	EC50 [2, 6] [nM]
393	> 300	–	CCOc1ccccc1NC(=O)NCc1ccc2c(c1)C(=O)N(C1CCC(=O)NC1=O)C2 (stereo not drawn) [Compound 22]	> 2000	> 10000	–
434	≤ 100	–	CC(C)(C)c1ccc(NC(=O)NCc2ccc3c(c2)C(=O)N(C2CCC(=O)NC2=O)C3)cc1 (stereo not drawn) [Compound 56]	≤ 400	> 10000	228
602	> 300	–	O=C1CCC(N2Cc3ccc(CNC(=O)Nc4cc(Cl)ccc4Cl)cc3C2=O)C(=O)N1 (stereo not drawn) [Compound 35]	> 2000	> 10000	–
550	≤ 100	–	Cc1cc(C)cc(NC(=O)NCc2ccc3c(c2)C(=O)N(C2CCC(=O)NC2=O)C3)c1 (stereo not drawn) [Compound 20]	400 to 2000	> 10000	555
444	> 300	–	O=C1CCC(N2Cc3ccc(CNC(=O)NCCc4ccccc4)cc3C2=O)C(=O)N1 (stereo not drawn) [Compound 27]	> 2000	> 10000	–
552	> 300	–	CCc1ccc(NC(=O)NCc2ccc3c(c2)C(=O)N(C2CCC(=O)NC2=O)C3)cc1 (stereo not drawn) [Compound 18]	> 2000	> 10000	–
540	> 300	–	O=C1CCC(N2Cc3ccc(CNC(=O)NCC4CCCCC4)cc3C2=O)C(=O)N1 (stereo not drawn) [Compound 58]	> 2000	> 10000	–
747	> 300	–	Cc1cccc(NC(=O)NCc2ccc3c(c2)C(=O)N(C2CCC(=O)NC2=O)C3)c1C (stereo not drawn) [Compound 44]	> 2000	> 10000	–
281	≤ 100	–	COc1cc(C)c(Cl)cc1NC(=O)NCc1ccc2c(c1)C(=O)N(C1CCC(=O)NC1=O)C2 (stereo not drawn) [Compound 76]	–	> 10000	–
400	> 300	–	O=C1CCC(N2Cc3ccc(CNC(=O)NCCc4ccc(Cl)cc4)cc3C2=O)C(=O)N1 (stereo not drawn) [Compound 64]	> 2000	> 10000	–
589	100 to 300	–	O=C1CCC(N2Cc3ccc(CNC(=O)Nc4cc(Cl)cc(Cl)c4)cc3C2=O)C(=O)N1 (stereo not drawn) [Compound 38]	≤ 400	> 10000	161
381	> 300	–	O=C1CCC(N2Cc3ccc(CNC(=O)Nc4cc(F)ccc4F)cc3C2=O)C(=O)N1 (stereo not drawn) [Compound 69]	> 2000	> 10000	–
867	> 300	–	O=C1CCC(N2Cc3ccc(CNC(=O)Nc4ccccc4C(F)(F)F)cc3C2=O)C(=O)N1 (stereo not drawn) [Compound 49]	> 2000	> 10000	–
580	≤ 100	–	COc1ccc(Cl)cc1NC(=O)NCc1ccc2c(c1)C(=O)N(C1CCC(=O)NC1=O)C2 (stereo not drawn) [Compound 30]	≤ 400	> 10000	359
595	100 to 300	–	CCc1cccc(NC(=O)NCc2ccc3c(c2)C(=O)N(C2CCC(=O)NC2=O)C3)c1 (stereo not drawn) [Compound 31]	400 to 2000	> 10000	457
576	> 300	–	Cc1c(Cl)cccc1NC(=O)NCc1ccc2c(c1)C(=O)N(C1CCC(=O)NC1=O)C2 (stereo not drawn) [Compound 19]	> 2000	> 10000	–
817	> 300	–	CCOc1ccc(NC(=O)NCc2ccc3c(c2)C(=O)N(C2CCC(=O)NC2=O)C3)cc1 (stereo not drawn) [Compound 16]	> 2000	> 10000	–
570	≤ 100	–	O=C1CCC(N2Cc3ccc(CNC(=O)Nc4ccc(OC(F)(F)F)cc4)cc3C2=O)C(=O)N1 (stereo not drawn) [Compound 77]	–	> 10000	–
725	≤ 100	–	Cc1cc(Cl)c(NC(=O)NCc2ccc3c(c2)C(=O)N(C2CCC(=O)NC2=O)C3)cc1Cl (stereo not drawn) [Compound 78]	–	> 10000	–
334	> 300	–	CC(C)(O)c1ccc(NC(=O)NCc2ccc3c(c2)C(=O)N(C2CCC(=O)NC2=O)C3)cc1 (stereo not drawn) [Compound 131]	–	–	–
581	100 to 300	176	Cc1c(Cl)cc(NC(=O)NCc2ccc3c(c2)C(=O)N(C2CCC(=O)NC2=O)C3)cc1C12CC1CN(C)C2 (stereo not drawn) [Compound 155]	–	–	–
570	> 300	–	O=C1CCC(N2Cc3ccc(CNC(=O)Nc4ccccn4)cc3C2=O)C(=O)N1 (stereo not drawn) [Compound 123]	–	–	–
222	> 300	–	Cc1cc(Cl)c(NC(=O)NCc2ccc3c(c2)C(=O)N(C2CCC(=O)NC2=O)C3)c(C)c1Cl (stereo not drawn) [Compound 96]	–	–	–
